According to patent publication US20020032183A1, “Use of (di-substituted-phenyl)-pyrimidinyl-imidazole derivatives as JNK-inhibitors” (priority 2000, published 2002):
Structures can show the parent of a compound that is named as a salt.

B1: NGF: NGF at 1 ng/ml, comparison group in the sympathetic neuronal survival assay; these neurons are NGF dependent (protein, UniProt P01139 122-241, looked up)
Beta-nerve growth factor: SSTHPVFHMGEFSVCDSVSVWVGDKTTATDIKGKEVTVLAEVNINNSVFRQYFFETKCRASNPVESGCRGIDSKHWNSYCTTTHTFVKALTTDEKQAAWRFIRIDTACVCVLSRKATRRG

Tests used:
JNK3α1 = target: T1, JNK3α1 (Homo sapiens, UniProt P53779); assay: Biochemical determination of inhibition of JNK3α1; settings: truncated JNK3α1, 1 μM ATP, 0.5 μM GST-ATF2, 30° C., 30 min
T1 construct: Truncated JNK3α1 (amino acids 39-422) was expressed in E. coli; made in house; host or cells: E. coli
Procedure: Activation reactions were incubated at 30° C. for 2 h.
Enzyme inhibition studies were performed at 30° C. for 30 min with 0.5 μM GST-ATF2, 1 μM ATP, 1 nM activated JNK3α1 and compound ranging from 30 pM to 100 μM. Reactions were carried out in 100 μL volumes containing the final concentrations of the following: 25 mM HEPES (Sigma) pH 7.4; 10 mM MgCl2 (Sigma); 2 mM DTT (Sigma); 20 mM β-glycerophosphate (Sigma); 0.1 mM Na3VO4 (Sigma); 2 μCi [γ-^33P]ATP (2000 Ci/mmol; 1 Ci=37 GBq) (Amersham Pharmacia Biotech, Piscataway, N.J.). Reactions were stopped with 100 μL 100 mM EDTA/15 mM sodium pyrophosphate. Immobilon™-P 96-well plates (Millipore MAIPNOB™ 10, available from the Millipore Corp., Bedford, Mass.) were pretreated with 100 μL methanol, followed by 100 μL 15 mM sodium pyrophosphate. Fifty μL of the stopped reaction was spotted in triplicate on the Immobilon™-P 96-well plate. The samples were vacuum-filtered and washed three times each with 100 μL 75 mM H3PO4 to remove unincorporated [γ-^33P]ATP. After the third H3PO4 wash and a final filtration step to remove H3PO4, 50 μL of Microscint™-20 (Packard BioScience Ltd., Pangbourne, Berkshire, U.K.) was added to each well and samples were analyzed on a Packard Topcount™ liquid scintillation counter. IC50 values were determined by fitting the data to the equation for a four parameter logistic.

[1] = tested on: Rat superior cervical ganglion neurons; assay: Sympathetic neuronal survival assay (no NGF exposure; GAP-43 ELISA and cell counts); assay type: cell-based; settings: NGF 1 ng/ml
Procedure: Activation of c-jun-N-terminal kinase (JNK) has been implicated in apoptosis in sympathetic neurons. An inhibitor of JNK, Example 2, was tested for neuroprotective effects in two models of sympathetic neuronal cell death.
In the first model, ganglia were dissociated and plated directly into culture plates in the presence of compound for 48 hours, then fixed and survival assayed using an ELISA for GAP-43. This model will hereafter be referred to as the ‘survival assay’.
Ganglia were enzymatically dissociated using 0.25% trypsin for 45 minutes. The trypsin was then inhibited using Dulbecco's MEM (DMEM) supplemented with 10% fetal bovine serum, and the cells mechanically triturated using a pipette tip to form a single cell suspension. Neurons in the suspension were counted using a haemocytometer, and plated at a density of 3000-5000 neurons per well in poly-D-lysine and laminin coated 96 well tissue culture clusters in DMEM supplemented with B27 serum substitute. Cultures were then incubated at 37° C./5% CO2. One hour following plating, cultures were either treated with NGF 25 ng/ml or with L-790,984 at a range of concentrations for the NGF deprivation and survival assays respectively.
Cultures for the NGF deprivation assay were returned to the incubator for 4 days. Following this, the medium was aspirated, plates washed once with DMEM/B27, and the cultures treated with Example 2 at concentrations ranging from 1 nM to 10 μM, together with an anti-NGF blocking antibody at 250 ng/ml. Cultures were then returned to the incubator for a further 72 hours prior to fixation and survival quantification. Cultures treated with Example 2 immediately for the survival assay were returned to the incubator for 48 hours; cultures were then fixed and survival quantified using the GAP-43 ELISA.
Cultures were fixed by the addition of an equal volume 4% paraformaldehyde to each well for 10 minutes; this was then aspirated, and replaced by a further volume of 4% paraformaldehyde for a further 20 minutes at room temperature. Plates were then washed three times with PBS/0.3% TX100, and non-specific binding sites blocked by the addition of 5% normal horse serum (NHS) in PBS/0.3% TX100. Plates were incubated at room temperature for one hour, then the blocking serum was aspirated without washing and replaced with primary antibody. The primary antibody used was a mouse monoclonal antibody raised against Growth Associated Protein 43 (Sigma), prepared at a dilution of 1:500 in PBS/0.3% TX100/5% NHS. Primary antibody was added to all sample wells, with four control wells returned to blocking serum to act as minus primary control. Plates were then refrigerated overnight at 4° C. The next day, plates were washed three times with PBS/0.3 TX100 and secondary antibody added. The secondary antibody used was peroxidase conjugated sheep anti-mouse IgG, and was added at a dilution of 1:1000 in PBS/0.3% TX100/5% NHS. Plates were incubated for 1 hour at room temperature, then washed three times with PBS/0.3% TX100, and K-Blue insoluble peroxidase substrate added for 30 minutes at room temperature. The optical density of the plates was then read at 650 nm, and the survival of neurons calculated and expressed as percentage of the control response.
Cell counts were performed on one sample plate for each model of sympathetic neuronal cell death, by the addition of a tertiary antibody to the plate, followed by avidin-biotin complex and an insoluble peroxidase substrate. Following quantification of optical density, plates were washed three times in PBS/0.3% TX100, and non-specific sites blocked using PBS/0.3% TX100/5% normal rabbit serum (“NRS”). Plates were incubated for one hour at room temperature, then the blocking serum was aspirated and replaced with biotinylated rabbit anti-sheep IgG at a dilution of 1:500 in PBS/0.3% TX10O/5% NRS. […]

T1 sequence (P53779 39-422 isoform P53779-2): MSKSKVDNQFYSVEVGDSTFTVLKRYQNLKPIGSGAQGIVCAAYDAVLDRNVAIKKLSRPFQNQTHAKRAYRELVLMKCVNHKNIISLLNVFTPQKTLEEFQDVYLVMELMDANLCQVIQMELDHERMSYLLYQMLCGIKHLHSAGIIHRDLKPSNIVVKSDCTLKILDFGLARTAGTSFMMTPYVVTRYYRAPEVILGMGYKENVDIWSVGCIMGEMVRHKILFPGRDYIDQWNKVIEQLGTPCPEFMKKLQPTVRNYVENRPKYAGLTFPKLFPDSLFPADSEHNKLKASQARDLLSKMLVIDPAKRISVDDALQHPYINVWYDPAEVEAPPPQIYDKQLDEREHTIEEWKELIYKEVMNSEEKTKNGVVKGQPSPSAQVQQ

| Molecule | IC50 (JNK3α1) [nM] | Survival, ELISA Data Mean ([1]; GAP-43 ELISA) | Survival, Cell Counts Mean ([1]; immunostained neurons per well) |
| --- | --- | --- | --- |
| CCCn1c(C2CCNCC2)nc(-c2ccc(Cl)c(Cl)c2)c1-c1ccnc(NC2CC2)n1 [Example 1, Cyclopropyl-{4-[5-(3,4-dichlorophenyl)-2-piperidin-4-yl-3-propyl-3H-imidazol-4-yl]-pyrimidin-2-yl}amine] | 8 | – | – |
| Clc1ccc(-c2nc(C3CCNCC3)n(CC3CC3)c2-c2ccnc(NC3CC3)n2)cc1Cl [Example 7, Cyclopropyl-{4-[3-cyclopropylmethyl-5-(3,4-dichlorophenyl)-2-piperidin-4-yl-3H-imidazol-4-yl]-pyrimidin-2-yl}amine bis trifluoroacetic acid salt] | 4 | – | – |
| B1 | – | 618.55 | 587.00 |
